Assay results as given in PMC2746412 (European journal of pharmacology, 2009).
Where two headings read alike, the source gives them in different places.

Legend:
GFP-SmSERT-A [1] = biological target: T1, GFP-SmSERT-A (Schistosoma mansoni, UniProt Q3HL76); test: cell-based; type: cell-based; details: for potency difference versus SmSERTs as compared with hSERT (fold less potent at SmSERTs): SmSERTs (A and B) vs hSERT, from IC50 of Table 1
GFP-hSERT [2] = biological target: T2, GFP-hSERT (Homo sapiens, UniProt P31645); test: Inhibition of [3H]-serotonin uptake in transfected COS-7 cells; type: cell-based
GFP-SmSERT-B [3] = biological target: T3, GFP-SmSERT-B (Schistosoma mansoni, UniProt Q3I1M7); test: [3H]-serotonin efflux experiment in COS-7 cells
GFP-hSERT [4] = biological target: T2, GFP-hSERT; type: cell-based
GFP-SmSERT-A [5] = biological target: T1, GFP-SmSERT-A; test: [3H]-serotonin efflux experiment in COS-7 cells
GFP-SmSERT-B [6] = biological target: T3, GFP-SmSERT-B; test: cell-based
S. mansoni sporocysts [7] = details: treatment of the sporocyst snail stage; ref Boyle and Yoshino, 2005; cited from earlier work
SmSERT-B = SmSERT-B (Schistosoma mansoni, UniProt Q3I1M7); type: cell-based; details: for substrate-elicited transport-associated currents, SmSERT-B: voltage-clamped Xenopus oocytes
SmSERT-A = SmSERT-A (Schistosoma mansoni, UniProt Q3HL76); test: Two-electrode voltage clamp of substrate-elicited currents in Xenopus oocytes; type: cell-based; details: for substrate-elicited transport-associated currents, SmSERT-A: voltage-clamped Xenopus oocytes
Schistosoma infections = details: ref Gryseels et al., 2006; cited from earlier work
S. mansoni adult worms = details: ref Wood and Mansour, 1986, cited from earlier work
GFP-SmSERT-A [8] = biological target: T1, GFP-SmSERT-A; type: cell-based; details: COS-7 cells
S. mansoni sporocysts [9] = details: living sporocysts; ref Boyle et al., 2003; cited from earlier work
GFP-SmSERT-B [10] = biological target: T3, GFP-SmSERT-B; type: cell-based; details: COS-7 cells
[11] = read-out: IC50 for serotonin transporter substrates, SmSERT-A
[12] = read-out: IC50 for serotonin transporter substrates, hSERT
[13] = Imax / (Vmax * Faraday constant), same batches of oocytes

T2 sequence (P31645 whole entry): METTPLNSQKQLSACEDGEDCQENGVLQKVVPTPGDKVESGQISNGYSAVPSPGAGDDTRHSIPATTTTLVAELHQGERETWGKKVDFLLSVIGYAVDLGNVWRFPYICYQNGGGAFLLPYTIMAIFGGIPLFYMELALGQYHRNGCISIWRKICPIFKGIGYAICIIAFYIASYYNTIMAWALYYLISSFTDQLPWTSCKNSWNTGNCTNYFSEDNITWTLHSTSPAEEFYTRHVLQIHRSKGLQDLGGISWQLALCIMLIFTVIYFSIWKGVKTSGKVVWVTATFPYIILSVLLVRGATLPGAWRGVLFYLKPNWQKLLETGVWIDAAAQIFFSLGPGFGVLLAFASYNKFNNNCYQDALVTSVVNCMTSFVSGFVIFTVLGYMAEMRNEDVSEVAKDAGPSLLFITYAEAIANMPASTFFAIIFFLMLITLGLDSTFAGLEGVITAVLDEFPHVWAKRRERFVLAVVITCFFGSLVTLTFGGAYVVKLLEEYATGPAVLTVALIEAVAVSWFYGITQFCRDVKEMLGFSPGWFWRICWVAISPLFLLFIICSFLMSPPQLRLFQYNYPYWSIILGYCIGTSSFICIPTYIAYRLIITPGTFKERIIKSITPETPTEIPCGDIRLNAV

Question: For `CNC(C)Cc1ccc2c(c1)OCO2` (racemic) [(±)MDMA], which IC50 (GFP-SmSERT-A [1]; [11]) is on record?
Answer: 320000 ± 162000 nM

Question: And the IC50 (GFP-hSERT [2]; [12])?
Answer: 2700 ± 500 nM

Question: And the “[3H]-serotonin efflux elicited by compound, SmSERT-B” value (GFP-SmSERT-B [3])?
Answer: not transported

Question: And the “[3H]-serotonin efflux elicited by compound, hSERT” value (GFP-hSERT [4])?
Answer: able to elicit serotonin efflux

Question: And the “[3H]-serotonin efflux elicited by compound, SmSERT-A” value (GFP-SmSERT-A [5])?
Answer: not transported

Question: Which IC50 (GFP-SmSERT-A [1]) does the source give for `O=[N+]([O-])c1ccc2nc(N3CCNCC3)ccc2c1` [6-Nitroquipazine] here?
Answer: 4 ± 2 nM

Question: What about the “potency difference versus SmSERTs as compared with hSERT (fold less potent at SmSERTs)” value (GFP-SmSERT-A [1]) of the same molecule?
Answer: two-fold

Question: What about the IC50 (GFP-SmSERT-B [6]) of the same molecule?
Answer: 4 ± 2 nM

Question: And the IC50 (GFP-hSERT [2])?
Answer: 2 ± 0.4 nM

Question: What does the source list for `COC(=O)[C@H]1[C@@H](OC(=O)c2ccccc2)C[C@@H]2CC[C@H]1N2C` [Cocaine]?
Answer: IC50 (GFP-SmSERT-A [1]): 37600 ± 16000 nM; IC50 (GFP-SmSERT-B [6]): 35400 ± 7600 nM

Question: With `CNCCC(Oc1ccc(C(F)(F)F)cc1)c1ccccc1` (centres unmarked) [Fluoxetine] as the molecule, how does the “production of daughter sporocysts” value (S. mansoni sporocysts [7]) read?
Answer: prevents the production of daughter sporocysts

Question: For `CN(C)CCCN1c2ccccc2CCc2ccccc21` [Imipramine], which IC50 (GFP-SmSERT-A [1]) is on record?
Answer: 300 ± 100 nM

Question: What about the IC50 (GFP-SmSERT-B [6]) of the same molecule?
Answer: 300 ± 200 nM

Question: Which results are given for `CSc1ccc2c(c1)C(N1CCN(C)CC1)Cc1ccccc1S2` (centres unmarked) [Methiothepin]?
Answer: IC50 (GFP-SmSERT-A [1]): 1900 ± 700 nM; IC50 (GFP-SmSERT-B [6]): 2200 ± 700 nM; IC50 (GFP-hSERT [2]): 6700 ± 4100 nM

Question: What does the source list for `COC(=O)[C@H]1C(c2ccc(I)cc2)C[C@@H]2CC[C@H]1N2C` (some centres unmarked) [RTI-55]?
Answer: potency difference versus SmSERTs as compared with hSERT (fold less potent at SmSERTs) (GFP-SmSERT-A [1]): 60 fold; IC50 (GFP-SmSERT-A [1]; read-out: IC50 for inhibiting serotonin uptake, SmSERT-A): 600 ± 400 nM; IC50 (GFP-SmSERT-B [6]; read-out: IC50 for inhibiting serotonin uptake, SmSERT-B, COS-7 cells, 100 nM [3H]serotonin, 10 min, mean ± SD): 600 ± 400 nM; IC50 (GFP-hSERT [2]; read-out: IC50 for inhibiting serotonin uptake, hSERT): 10 ± 10 nM

Question: With `COc1ccc2[nH]cc(C3=CCNCC3)c2c1` [RU 24969] as the molecule, how does the IC50 (GFP-SmSERT-A [1]) read?
Answer: 180000 ± 63000 nM

Question: What about the IC50 (GFP-SmSERT-B [6]) of the same molecule?
Answer: 165000 ± 65000 nM

Question: What about the IC50 (GFP-hSERT [2]) of the same molecule?
Answer: 8500 ± 900 nM

Question: What about the “[3H]-serotonin efflux elicited by compound, hSERT” value (GFP-hSERT [4]) of the same molecule?
Answer: able to elicit serotonin efflux

Question: With `C[C@H](N)Cc1ccccc1` [S(+)Amphetamine] as the molecule, how does the IC50 (GFP-SmSERT-A [1]; [11]) read?
Answer: 300000 ± 27000 nM

Question: What about the “[3H]-serotonin efflux elicited by compound, SmSERT-B” value (GFP-SmSERT-B [3]) of the same molecule?
Answer: not transported

Question: What about the “[3H]-serotonin efflux elicited by compound, SmSERT-A” value (GFP-SmSERT-A [5]) of the same molecule?
Answer: not transported

Question: With `NCCc1c[nH]c2ccccc12` [Tryptamine] as the molecule, how does the IC50 (GFP-SmSERT-A [1]) read?
Answer: 19600 ± 3600 nM

Question: What about the “substrate-elicited transport-associated currents, SmSERT-B” value (SmSERT-B) of the same molecule?
Answer: elicits clear transport associated currents

Question: What about the IC50 (GFP-SmSERT-B [6]) of the same molecule?
Answer: 19300 ± 4400 nM

Question: And the IC50 (GFP-hSERT [2])?
Answer: 1400 ± 100 nM

Question: And the “substrate-elicited transport-associated currents, SmSERT-A” value (SmSERT-A)?
Answer: elicits clear transport associated currents

Question: And the “[3H]-serotonin efflux elicited by compound, hSERT” value (GFP-hSERT [4])?
Answer: able to elicit serotonin efflux

Question: Which IC50 (GFP-SmSERT-A [1]; [11]) does the source give for `Cl.Cl.Clc1cccc(N2CCNCC2)c1` [m-CPP, m-1-(3-Chlorophenyl)piperazine dihydrochloride] here?
Answer: 58000 ± 4000 nM

Question: And the IC50 (GFP-hSERT [2]; [12])?
Answer: 1800 ± 300 nM

Question: And the “[3H]-serotonin efflux elicited by compound, SmSERT-B” value (GFP-SmSERT-B [3])?
Answer: not transported

Question: And the “[3H]-serotonin efflux elicited by compound, hSERT” value (GFP-hSERT [4])?
Answer: able to elicit serotonin efflux

Question: What about the “[3H]-serotonin efflux elicited by compound, SmSERT-A” value (GFP-SmSERT-A [5]) of the same molecule?
Answer: not transported

Question: Which “activity on immature worms and eggs” value (Schistosoma infections) does the source give for `O=C(C1CCCCC1)N1CC(=O)N2CCc3ccccc3C2C1` (centres unmarked) [praziquantel] here?
Answer: not active on immature worms and eggs

Question: Which “apparent affinity for serotonin uptake, adult female worms” value (S. mansoni adult worms; living adult female parasites) does the source give for `NCCc1c[nH]c2ccc(O)cc12` [serotonin, 5-hydroxytryptamine] here?
Answer: 1.46 µM

Question: What about the “apparent affinity for serotonin uptake, adult male worms” value (S. mansoni adult worms; living adult male parasites) of the same molecule?
Answer: 1.73 µM

Question: What about the “charges moved per serotonin molecule transported (Q/Jmax), SmSERT-B” value (SmSERT-B; [13]) of the same molecule?
Answer: 1.9 charges

Question: What about the “substrate-elicited transport-associated currents, SmSERT-B” value (SmSERT-B) of the same molecule?
Answer: concentration-dependent inward currents

Question: And the “transport of tritiated substrate by SmSERT-A” value (GFP-SmSERT-A [8]; data not shown)?
Answer: transport

Question: And the “Vmax of serotonin uptake, SmSERT-A” value (GFP-SmSERT-A [8]; mean ± SD of three experiments)?
Answer: 1.8 ± 1.4 pmol/min

Question: And the Km (GFP-SmSERT-A [8]; read-out: apparent affinity (KT / KM) for serotonin uptake, SmSERT-A, 10 min, room temperature, mean ± SD of three experiments)?
Answer: 2.3 ± 0.9 µM

Question: And the “apparent affinity for serotonin uptake in sporocysts” value (S. mansoni sporocysts [9])?
Answer: 1.4 µM

Question: What about the “transport of tritiated substrate by SmSERT-B” value (GFP-SmSERT-B [10]; data not shown) of the same molecule?
Answer: transport

Question: And the “Vmax of serotonin uptake, SmSERT-B” value (GFP-SmSERT-B [10]; mean ± SD of three experiments)?
Answer: 1.4 ± 1.1 pmol/min

Question: And the Km (GFP-SmSERT-B [10]; read-out: apparent affinity (KT / KM) for serotonin uptake, SmSERT-B, 10 min, room temperature, mean ± SD of three experiments)?
Answer: 2.2 ± 1.1 µM

Question: What about the “charges moved per serotonin molecule transported (Q/Jmax), SmSERT-A” value (SmSERT-A; [13]) of the same molecule?
Answer: 1.9 charges

Question: And the “substrate-elicited transport-associated currents, SmSERT-A” value (SmSERT-A)?
Answer: concentration-dependent inward currents
